Source: US20210078958A1, “QUINAZOLINE DERIVATIVE AND USE THEREOF” (MEDSHINE DISCOVERY INC., priority 2017, published 2021)

How the values were obtained:
BT-474 cell = assay: inhibitory activity on cell proliferation (Cell-Titer-Glo), BT-474; format: cell-based; details: Homo sapiens, BT-474, 72 h; incubation for 3 days, Cell-Titer-Glo
Source text: (§1) Purpose of the assay: to detect the inhibitory activity of the test compounds on cell proliferation.
(§2) Principle of the assay: the luciferase in a Cell-Titer-Glo reagent produces oxidized luciferin with luciferin, oxygen and ATP as reaction substrates, and releases energy in the form of light. Since the luciferase reaction requires ATP, the total amount of light generated by the reaction is proportional to the total amount of ATP that reflects cell viability.
(§3) Cell Titer-Glo cell viability assay kit with luminescence (Promega #G7573)
(§4) According to the schematic diagram of the cell seed plate, cells were seeded in a 384- or 96-well plate at a density of 1000 cells per well and 25 μL per well, and 25 μL of PBS was added to the wells near edge of the place where no cells were seeded.
(§5) (1) The stock solution of the compounds has a concentration of 10 mM, and the compounds were diluted with DMSO to an initial concentration of 4 mM. The compounds were added to the plate with stock solution of compounds, 9 μL per well.
(§6) (2) The compounds were diluted with an ECHO liquid workstation, where 125 nL of compounds were added to each well of the cell plate, 125 nL of DMSO was added to each of the cell well in columns 2 and 23, and 125 nL of DMSO was added to each PBS well in columns 1 and 24.
(§7) 2.3 After addition of the compounds, the cell plate was centrifuged at 1000 rpm for 1 min, and then placed in a 37° C., 5% CO2 incubator for incubation for 3 days.
(§8) The cell plate was taken out from the incubator and equilibrated at room temperature for 30 minutes. 25 μL of Cell-Titer-Glo reagent was added to each well, shaken for one minute to allow well mixed, and centrifuged at 1000 rpm for 1 minute. After 10 minutes, the plate was read on PerkinElmer Envision, and the […] reading time was set to 0.2 second.

OE21 cell = assay: inhibitory activity on cell proliferation (Cell-Titer-Glo), OE21; format: cell-based; details: Homo sapiens, OE21, 72 h, incubation for 3 days
Source text: as §1, §2, §3, §4, §5, §6, §7, §8

[1] = tested on: subcutaneous xenograft tumor of human gastric cancer NCI-N87 cells; assay: Assay Example 5: in vivo pharmacodynamics, NCI-N87 xenograft; design: species or system BALB/c nude mouse; details: 0.5 mg/kg
Description: Purpose of the assay: to evaluate the in vivo efficacy of test compounds disclosed herein on subcutaneous xenograft tumor of human gastric cancer NCI-N87 cells in a BALB/c nude mouse model.
Animals of the assay: female BALB/c nude mice, 6-8 weeks old, weighing 18-22 grams; supplier: shanghai sippr bk laboratory animals Ltd.
Human gastric cancer NCI-N87 cells were cultured in monolayer in vitro. The culture conditions were RPMI-1640 medium plus 10% fetal bovine serum, 100 U/mL penicillin, 100 μg/mL streptomycin, 37° C., 5% CO2. The passaging was performed by conventional digestion with trypsin-EDTA twice a week. When the cell saturation was 80%-90%, the cells were collected, counted and inoculated.
0.2 mL (10×10^6) of NCI-N87 cells (PBS+Matrigel, 1:1) were inoculated subcutaneously on the right back of each mouse. When the average tumor volume reached 156 mm^3, administration to each group was started.
The test compounds were formulated into a 0.05 mg/mL clear solution in the solvents of 10% NMP (N-methylpyrrolidone)+10% ethylene glycol stearate+80% water.
The assay index is to investigate whether tumor growth is inhibited, delayed or cured. Tumor diameter was measured twice a week with a vernier caliper. The calculation formula of tumor volume is: V=0.5a×b^2, wherein a and b represent the long and short diameters of tumor, respectively.
The antitumor efficacy of the compounds were evaluated by TGI (%) or tumor proliferation rate T/C (%). TGI (%) reflects the tumor growth inhibition rate. TGI (%) is calculated as follows: TGI (%)=[1−(average tumor volume at the end of administration for a certain treatment group−average tumor volume at the beginning of administration for this treatment group)/(average tumor volume at the end of treatment for a solvent control group−average tumor volume at the beginning of administration for this solvent control group)]×100%.
Tumor proliferation rate T/C (%): the calculation formula is as follows: T/C (%)=average tumor volume at the end of administration for a certain treatment group/average tumor volume at the end of treatment for the solvent control group×100%.
Statistical analysis included the mean and standard error (SEM) of tumor volume at each time point in each group (See Table 5-1 for specific data). […] The comparison between two groups was analyzed by T-test, and the comparison among three or more groups was analyzed by one-way ANOVA. […] All data analysis was carried out with SPSS 17.0. p<0.05 was considered a significant difference.

Structure (SMILES) | IC50 (BT-474 cell) | IC50 (OE21 cell) | Tumor volume (mm^3) (Day 21) ([1]; NCI-N87 xenograft, Mean + SEM) | T/C (%) ([1]; day 21) | TGI (%) ([1]; day 21)
C=CC(=O)N1[C@@H]2CC[C@H]1C[C@H](Oc1cc3c(Nc4ccc(Cl)c(Cl)c4F)ncnc3cc1OC)C2 [Example 8] | 0.39 nM | 0.47 nM |  |  | 
C=CC(=O)N1[C@@H]2CC[C@H]1C[C@H](Nc1cc3c(Nc4ccc(Cl)c(Cl)c4F)ncnc3cc1OC)C2 [Example 38] |  | 0.52 nM | 63 ± 10 mm^3 | 10.69% | 119.41%
